Experimental findings from patent publication US9023864B2, “Indole derivatives as CRTH2 receptor antagonists” (Merck Sharp & Dohme Corp., priority 2009, dated 2015) are described below.

The structures appear in SMILES notation.

For the experiment, the target named is T1, hCRTH2 (Homo sapiens, UniProt Q9Y5Y4).
T1 construct: expressed in transfected cells; host or cells: HEK cell line expressing hCRTH2 (HEK-hCRTH2); membranes
T1 sequence (Q9Y5Y4 1-395): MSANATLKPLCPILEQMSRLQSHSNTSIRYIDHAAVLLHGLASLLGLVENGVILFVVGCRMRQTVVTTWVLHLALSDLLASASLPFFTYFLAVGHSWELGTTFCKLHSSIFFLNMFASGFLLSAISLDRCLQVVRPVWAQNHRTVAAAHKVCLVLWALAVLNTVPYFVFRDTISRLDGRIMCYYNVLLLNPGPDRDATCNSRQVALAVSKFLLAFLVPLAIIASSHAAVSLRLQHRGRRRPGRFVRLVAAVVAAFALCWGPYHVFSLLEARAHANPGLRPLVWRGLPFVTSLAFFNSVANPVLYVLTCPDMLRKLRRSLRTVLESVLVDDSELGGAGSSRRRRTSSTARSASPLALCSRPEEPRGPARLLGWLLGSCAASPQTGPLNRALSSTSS
As to the kind of experiment: Radioligand binding assay ([3H]PGD2 competition, membranes from HEK-hCRTH2 cell line). As to conditions: 0.7 nM [3H]PGD2, membrane protein from HEK-hCRTH2 cell line, 60 min at room temperature; values given as ranges. As for the experimental part: Radioligand Binding Assay.
Radioligand binding assays were performed at room temperature in 10 mM HEPES/KOH pH 7.4, 1 mM EDTA containing 10 mM MnCl2 and 0.7 nM [^3H]PGD2 (NEN, 171 Ci mmol^−1), in a final volume of 0.2 ml. Competing ligands were diluted in dimethylsulfoxide (Me2SO) that was kept constant at 1% (v/v) of the final incubation volume. The reaction was initiated by the addition of 8-20 μg of membrane protein prepared from a HEK-hCRTH2 cell line. Total and non-specific binding were determined in the absence and the presence of 10 μM PGD2, respectively. Under these conditions, specific binding (total minus non-specific) of the radioligand to the receptor reached equilibrium within 50 min and was stable up to 180 min. The reaction was routinely conducted for 60 min at room temperature and terminated by rapid filtration through prewetted Unifilters GF/C (Packard), using a Tomtec MachIII semi-automated harvester (for HEK-hCRTH2). The filters were then washed with 4 ml of the same buffer and residual radioligand bound to the filter was determined by liquid scintillation counting following equilibration in 25 μl Ultima Gold F™ (Unifilter) (Packard). The Ki (in nM) values for representative compounds of the present invention are as follows: ≦5: Examples 3.1, 5.1, 6.1, 7.1, 8.1/8A, 9.1, 26, 27.1, 28.1, 29.1, 30, 31.1, 31.3, 32.1, 32.4, 33.1, 34.1, 36.1, 38.1, 39, 40, 41; >5 and ≦10: Examples, 4, 5.3, 29.2; >10 and ≦50: Examples 1, 10, 14, 21, 22, 25, 31.4, 32.3, 35, 36.2, 37; >50 and ≦100: Examples 2, 5.4, 6.2, 27.2, 28.2; >100: Examples 3.2, 5.2, 7.2, 8.2, 9.2, 11, 12, 13, 15, 16, 17, 18, 19, 20, 23, 24, 31.2, 32.2, 33.2, 34.2, 38.2.
Take `CC(O)(c1ccc(F)cc1)c1cnnn1C1CCc2c(CC(=O)O)c3ccccc3n2C1` (single isomer, unassigned) [Example 5.3, (7-{5-[1-(4-Fluoro-phenyl)-1-hydroxy-ethyl]-[1,2,3]triazol-1-yl}-6,7,8,9-tetrahydropyrido[1,2-α]indol-10-yl)-acetic acid]: the Ki (as a rule, the equilibrium dissociation constant of an inhibitor or competing ligand from its target) lay in the range of 5 to 10 nM.

For the molecule `O=C(O)Cc1c2n(c3ccccc13)CC(n1nncc1Cc1ccc(F)cc1)CC2` (single isomer, unassigned) [Example 28.2], the Ki fell in the range of 50 to 100 nM.

Take `O=C(O)Cc1c2n(c3c(F)cccc13)CC(n1nncc1Cc1ccc(F)c(F)c1)CC2` (single isomer, unassigned) [Example 33.2, {7-[5-(3,4-difluorobenzyl)-1H-1,2,3-triazol-1-yl]-4-fluoro-6,7,8,9-tetrahydropyrido[1,2-a]-indol-10-yl}acetic acid]: the Ki was more than 100 nM.

For `O=C(O)Cc1c2n(c3ccccc13)CC(n1nncc1C1CCCCC1)CC2` (stereo not drawn) [Example 24, [7-(5-Cyclohexyl-[1,2,3]triazol-1-yl)-6,7,8,9-tetrahydropyrido[1,2-α]indol-10-yl]-acetic acid], the Ki was more than 100 nM.

In turn, `O=C(O)Cc1c2n(c3c(F)cccc13)CC(n1nncc1Cc1ccc(F)cc1F)CC2` (single isomer, unassigned) [Example 41, {7-[5-(2,4-difluorobenzyl)-1H-1,2,3-triazol-1-yl]-4-fluoro-6,7,8,9-tetrahydro-pyrido[1,2-a]indol-10-yl}acetic acid] returned a Ki not above 5 nM.

Molecule `CC(C)(c1ccc(F)cc1)c1cnnn1C1CCc2c(CC(=O)O)c3cccc(F)c3n2C1` (single isomer, unassigned) [Example 39, (4-Fluoro-7-{5-[1-(4-fluorophenyl)-1-methylethyl]-1H-1,2,3-triazol-1-yl}-6,7,8,9-tetrahydropyrido[1,2-a]indol-10-yl)acetic acid] displayed a Ki not above 5 nM.

Turning to `O=C(O)Cn1c2c(c3ccccc31)CC(n1nncc1Cc1ccccc1)CC2` (single isomer, unassigned) [Example 9.2, [3-(5-Benzyl-[1,2,3]triazol-1-yl)-1,2,3,4-tetrahydro-carbazol-9-yl]-acetic acid], the Ki was more than 100 nM.

`O=C(O)Cc1c2n(c3ccccc13)CC(n1nncc1C(O)(c1ccc(F)cc1)c1ccc(F)cc1)CC2` (single isomer, unassigned) [Example 27.2] came in with a Ki of 50 to 100 nM.

On to `CS(=O)(=O)c1ccc(-c2cn(C3CCc4c(CC(=O)O)c5ccccc5n4C3)nn2)cc1` (stereo not drawn) [Example 15, {7-[4-(4-Methanesulfonyl-phenyl)-[1,2,3]triazol-1-yl]-6,7,8,9-tetrahydropyrido[1,2-α]indol-10-yl}-acetic acid], for which the Ki was more than 100 nM.

Molecule `O=C(O)Cc1c2n(c3ccccc13)CC(n1nncc1Cc1ccc(F)cc1)CC2` (single isomer, unassigned) [Example 28.1] had a Ki not above 5 nM.

In turn, `CC(O)(c1ccc(F)cc1)c1cnnn1C1CCc2c(CC(=O)O)c3cccc(F)c3n2C1` (single isomer, unassigned) [Example 31.2] registered a Ki of more than 100 nM.

In turn, `O=C(O)Cc1c2n(c3ccccc13)CC(n1cc(-c3ccc(C(F)(F)F)cc3)nn1)CC2` (stereo not drawn) [Example 17, {7-[4-(4-Trifluoromethyl-phenyl)-[1,2,3]triazol-1-yl]-6,7,8,9-tetrahydropyrido[1,2-α]indol-10-yl}acetic acid] showed a Ki of more than 100 nM.

As for `CC(O)(c1ccc(F)cc1)c1cnnn1C1CCc2c(CC(=O)O)c3cccc(F)c3n2C1` (single isomer, unassigned) [Example 31.1], the Ki was not above 5 nM.

The molecule `O=C(O)Cc1c2n(c3c(F)cccc13)CC(n1nncc1Cc1ccc(Cl)cc1)CC2` (single isomer, unassigned) [Example 34.1, {7-[5-(4-chlorobenzyl)-1H-1,2,3-triazol-1-yl]-4-fluoro-6,7,8,9-tetrahydropyrido[1,2-a]indol-10-yl}acetic acid] displayed a Ki not above 5 nM.

With `COc1ccc(-c2cn(C3CCc4c(CC(=O)O)c5ccccc5n4C3)nn2)cc1` (stereo not drawn) [Example 2, {7-[4-(4-Methoxy-phenyl)-[1,2,3]triazol-1-yl]-6,7,8,9-tetrahydropyrido[1,2-α]indol-10-yl}-acetic acid], the Ki lay within 50 to 100 nM.

Molecule `CC(O)(c1ccc(F)cc1)c1cnnn1C1CCc2c(CC(=O)O)c3ccccc3n2C1` (single isomer, unassigned) [Example 5.2, (7-{5-[1-(4-Fluoro-phenyl)-1-hydroxy-ethyl]-[1,2,3]triazol-1-yl}-6,7,8,9-tetrahydropyrido[1,2-α]indol-10-yl)-acetic acid] gave a Ki of more than 100 nM.

`O=C(O)Cc1c2n(c3ccccc13)CC(n1nncc1-c1ccc(F)cc1)CC2` (stereo not drawn) [Example 20, {7-[5-(4-Fluoro-phenyl)-[1,2,3]triazol-1-yl]-6,7,8,9-tetrahydropyrido[1,2-α]indol-10-yl}-acetic acid] came in with an inhibitory constant (Ki) of more than 100 nM.

For the molecule `CC1C(n2nncc2Cc2ccc(F)cc2)CCc2c(CC(=O)O)c3cccc(F)c3n21` (single isomer, unassigned) [Example 38.2, {4-Fluoro-7-[5-(4-fluorobenzyl)-1H-1,2,3-triazol-1-yl]-6-methyl-6,7,8,9-tetrahydropyrido[1,2-α]indol-10-yl}acetic acid], the Ki is more than 100 nM.

`Cc1c(Cc2ccc(F)cc2)nnn1C1CCc2c(CC(=O)O)c3cccc(F)c3n2C1` (racemic) [Example 37, {4-Fluoro-7-[4-(4-fluorobenzyl)-5-methyl-1H-1,2,3-triazol-1-yl]-6,7,8,9-tetrahydropyrido[1,2-α]indol-10-yl}acetic acid]: the Ki is 10 to 50 nM.

On to `CC(c1ccccc1)c1cnnn1C1CCc2c(CC(=O)O)c3ccccc3n2C1` (single isomer, unassigned) [Example 29.1], for which the Ki is not above 5 nM.

Molecule `CC(c1ccccc1)c1cnnn1C1CCc2c(CC(=O)O)c3cccc(F)c3n2C1` (single isomer, unassigned) [Example 32.1, {4-Fluoro-7-[5-(1-phenyl-ethyl)-[1,2,3]triazol-1-yl]-6,7,8,9-tetrahydropyrido[1,2-α]indol-10-yl}-acetic acid] showed a Ki not above 5 nM.

`O=C(O)Cc1c2n(c3ccccc13)CC(n1nncc1C1(c3ccccc3)CCCC1)CC2` (single isomer, unassigned) [Example 6.2, {7-[5-(1-Phenyl-cyclopentyl)-[1,2,3]triazol-1-yl]-6,7,8,9-tetrahydropyrido[1,2-α]indol-10-yl}-acetic acid] displayed a Ki of 50 to 100 nM.

In the case of `CC(O)(c1ccc(F)cc1)c1cnnn1C1CCc2c(CC(=O)O)c3cccc(F)c3n2C1` (single isomer, unassigned) [Example 31.4], the Ki lay in the range of 10 to 50 nM.

In turn, `CC(O)(c1ccc(F)cc1)c1cnnn1C1CCc2c(CC(=O)O)c3cccc(F)c3n2C1` (single isomer, unassigned) [Example 31.3] displayed a Ki not above 5 nM.

As for `O=C(O)Cc1c2n(c3ccccc13)CC(n1cc(-c3ccc(F)cc3)nn1)CC2` (stereo not drawn) [Example 10, {7-[4-(4-Fluoro-phenyl)-[1,2,3]triazol-1-yl]-6,7,8,9-tetrahydropyrido[1,2-α]indol-10-yl}-acetic acid], the Ki is 10 to 50 nM.

As to `O=C(O)Cc1c2n(c3ccccc13)CC(n1cc(Cc3ccccc3)nn1)CC2` (stereo not drawn) [Example 1, [7-(4-Benzyl-[1,2,3]triazol-1-yl)-6,7,8,9-tetrahydropyrido[1,2-α]indol-10-yl]-acetic acid], the Ki is 10 to 50 nM.

With `O=C(O)Cc1c2n(c3ccccc13)CC(n1cc(COc3ccccc3)nn1)CC2` (stereo not drawn) [Example 14, [7-(4-Phenoxymethyl-[1,2,3]triazol-1-yl)-6,7,8,9-tetrahydropyrido[1,2-α]indol-10-yl]-acetic acid], the Ki was 10 to 50 nM.

In the case of `O=C(O)Cc1c2n(c3c(F)cccc13)CC(n1nncc1Cc1ccc(F)cc1)CC2` (single isomer, unassigned) [Example 8.2, {4-Fluoro-7-[5-(4-fluoro-benzyl)-[1,2,3]triazol-1-yl]-6,7,8,9-tetrahydropyrido[1,2-α]indol-10-yl}-acetic acid], the Ki was more than 100 nM.
